# Data taken from patent US20240091218A1, “METHODS OF TREATING PROSTATE CANCER USING EXICORILANT AND ENZALUTAMIDE” (Corcept Therapeutics Incorporated, priority 2022, published 2024).
# “And” between values parts separate entries of the source, which are not always exact repeats. Equal values may be shown once. “Also recorded” adds a separate entry of the source. Read-outs that look alike come from different tables or passages of the source.
# Experiments:
# GR target genes (CDKN1C) = assay: GR target gene expression in blood (NanoString)
# [1] = male, human, in vivo
# [2] = test system: metastatic castration-resistant prostate cancer (mCRPC)
# Protocol: Patients received either exicorilant 180 mg twice daily (BID)+enzalutamide 160 mg once daily (QD), or exicorilant 140 mg BID+enzalutamide 160 mg QD with a 28-day enzalutamide lead-in, or exicorilant 140 mg BID+enzalutamide 160 mg QD without an enzalutamide lead-in. Segment 2 enrolled patients who were on a stable dose of enzalutamide with rising PSA (25% increase over nadir and an absolute value >1 ng/mL) and evaluated QD dosing of exicorilant in a double-blind design. All segment 2 patients received exicorilant 240 mg QD+enzalutamide and were randomized 3:1 to titrate to exicorilant 280 mg or 320 mg or to receive placebo.
# Segment 2 of the study was a double-blind, placebo-controlled study of patients with rising PSA; exicorilant was administered once-daily, at a dose that was phased-in (titrated in these patients from 240 mg/day, to 280 mg/ day, to 320 mg/day). […] Twenty five patients were enrolled and randomized in a ratio of 3:1 to arm A or to arm B. Exicorilant was administered to the patients once per day, with food; enzalutamide was administered at the dose that was currently tolerated and stable for each patient. Pharmacokinetic assessments of both exicorilant and enzalutamide were made on cycle 1, day 15 (C1D15), and two weeks after each dose escalation; pharmacokinetic assessments of exicorilant were made after each dose reduction (if any). Pharmacodynamic (PD) assessments were made on cycle 1, day 1 (C1D1), cycle 1, day 15 (C1D15), and two weeks after each dose escalation every three cycles from cycle 3, and upon exicorilant discontinuation or disease progression.
# PSADT was calculated prior to the first dose of exicorilant (patients on enzalutamide alone), and after C1D1, C2D1, and C3D1 (where “C1D1” stands for cycle 1, day 1 of the combined treatment; “C2D1” stands for cycle 2, day 1 of the combined treatment; and “C3D1” stands for cycle 3, day 1 of the combined treatment).
# The median duration of exposure to exicorilant was 9.7 weeks (range: 2-61). In the results shown in FIG. 8A, tumor response was assessed by Prostate Cancer Clinical Trials Working Group 3 (PCWG3) criteria, incorporating modified “Response Evaluation Criteria in Solid Tumors v1.1” (mRECIST v1.1) criteria. Imaging-based PFS was assessed by mRECIST v1.1, progression on bone lesions per PCWG3, or death.
# [3] = test system: 22Rv1 prostate cancer xenografts; assay: mouse 22Rv1 prostate cancer xenografts; type: in vivo; settings: 21 days
# From the text: Left: N=10 mice/group. Castration performed 5 days after inoculation with 22Rv1 tumor cells; exicorilant treatment initiated on day 6 for 21 days. Right: N=10 mice/group. Castration performed 3 days before implantation of 22Rv1 tumor cells; exicorilant treatment initiated on day 7 for 21 days.
# cortisol, ACTH = assay: serum cortisol, ACTH and 24-h urinary free cortisol in patients; type: in vivo, human; settings: for serum cortisol and ACTH levels: patients receiving exicorilant and enzalutamide
# Protocol: Data from Segment 2 subjects whose exicorilant doses were escalated to the doses indicated on the horizontal axis. The 24-h UFC reference range was 10-100 μg/day. The 24-h UFC value for C1D1 (cycle 1, day 1) indicates the initial 24-h UFC levels.
# Consistent with prior studies of exicorilant and other SGRMs, morning serum cortisol and ACTH levels were not affected in the safety population or patients who escalated to 320 mg exicorilant. […] The grey band indicates the baseline mean±SD. End of treatment: n=9; cycle 9 day 1: n=3; cycle 6 day 1: n=8; cycle 3 day 1: n=14; cycle 2 day 1: n=13; baseline: n=20.
# [4] = From the text: The present study was an investigation of the safety and efficacy of exicorilant when administered in combination with enzalutamide in the treatment of patients suffering from metastatic castration-resistant prostate cancer (mCRPC). […] Patients with histologically confirmed prostate cancer, who had received at least two prior regimens of cytotoxic chemotherapy, were eligible for this study.
# Patients in Segment 1 of the study received exicorilant twice daily under fasted conditions. This segment of the study was performed with a standard ‘3+3’ design, including one cohort with an enzalutamide alone lead-in. Enzalutamide was administered once daily.
# Patients in Segment 2 of the study received exicorilant once daily under fed conditions. This segment of the study was a double-blind study, in which patients were randomized 3:1 to exicorilant titration (starting at 240 mg, titrated to 280 mg followed by 320 mg every 2 weeks as tolerated starting Cycle 1 Day 16) or to stay on exicorilant 240 mg+placebo. Enzalutamide was administered once daily.
# Treatment emergent adverse events (TEAEs) and dose-limiting toxicity events (DLTs) were evaluated for the patients in Segment 2.
# Dose-limiting toxicities (DLTs) were recorded from first dose of exicorilant through Cycle 3 and were defined as considered possibly or probably related to study drug by the investigator.
# human GR [5] = target: T1, human GR (Homo sapiens, UniProt P04150); assay: human GR functional assays; type: cell-based
# T1 sequence (P04150 1-777): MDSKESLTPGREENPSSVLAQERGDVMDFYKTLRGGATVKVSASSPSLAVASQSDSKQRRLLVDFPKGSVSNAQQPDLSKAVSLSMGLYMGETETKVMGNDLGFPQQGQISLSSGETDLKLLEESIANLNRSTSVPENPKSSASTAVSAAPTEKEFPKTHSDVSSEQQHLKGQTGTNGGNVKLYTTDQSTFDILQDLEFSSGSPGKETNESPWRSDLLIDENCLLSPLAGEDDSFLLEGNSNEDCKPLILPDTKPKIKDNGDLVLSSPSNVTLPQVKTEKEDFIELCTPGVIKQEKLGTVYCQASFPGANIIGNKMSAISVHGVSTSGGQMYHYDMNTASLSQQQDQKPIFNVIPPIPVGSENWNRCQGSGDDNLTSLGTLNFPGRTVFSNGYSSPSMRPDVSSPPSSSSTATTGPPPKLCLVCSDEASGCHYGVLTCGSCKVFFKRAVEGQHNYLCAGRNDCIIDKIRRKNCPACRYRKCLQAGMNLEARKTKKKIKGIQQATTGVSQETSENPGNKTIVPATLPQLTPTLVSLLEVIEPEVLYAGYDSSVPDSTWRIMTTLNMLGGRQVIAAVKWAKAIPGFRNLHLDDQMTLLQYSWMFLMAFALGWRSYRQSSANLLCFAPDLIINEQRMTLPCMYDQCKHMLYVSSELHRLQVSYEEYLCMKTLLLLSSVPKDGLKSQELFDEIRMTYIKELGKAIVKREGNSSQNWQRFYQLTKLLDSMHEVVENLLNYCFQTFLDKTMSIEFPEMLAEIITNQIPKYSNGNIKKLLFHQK
# [6] = exicorilant pharmacokinetics in Segment 2 patients; type: in vivo, human; settings: for AUC(0-t) / Cmax: male, human, in vivo, oral, once daily with food; for AUC(0-t): read-out: AUC0-24, geometric mean; for Cmax: read-out: Cmax, geometric mean
# From the text: Exicorilant pharmacokinetics observed in the patients in Segment 2 are illustrated in FIG. 4A (data are shown as geometric mean plus geometric standard deviation), and tabulated in TABLE 6.
# ER and AR = assay: selectivity for GR relative to ER and AR
# human GR [7] = target: T1, human GR; assay: human GR binding
# [8] = Segment 2 (n = 25), PCWG3 criteria
# [9] = Arm A, EXI 240 mg + ENZA 160 mg (15 PK observations)
# [10] = Arm A, EXI 280 mg + ENZA 160 mg (8 PK observations)
# [11] = Arm A, EXI 320 mg + ENZA 160 mg (8 PK observations)
# [12] = Arm B, EXI 240 mg + ENZA 160 mg (14 PK observations, combined)
structure (smiles),measurement,setting,value
CNC(=O)c1ccc(N2C(=S)N(c3ccc(C#N)c(C(F)(F)F)c3)C(=O)C2(C)C)cc1F [enzalutamide],CDKN1C expression,"GR target genes (CDKN1C); enzalutamide alone, Segment 1 lead-in",not affected
same,enzalutamide exposures in combination with exicorilant,[1],consistent with historical data for enzalutamide 160 mg alone
CNC(=O)c1ccc(N2C(=S)N(c3ccc(C#N)c(C(F)(F)F)c3)C(=O)C2(C)C)cc1F.Cn1ncc(S(=O)(=O)N2CC[C@H]3Cc4c(cnn4-c4ccc(F)cc4)C[C@]3(C(=O)c3cc(C(F)(F)F)ccn3)C2)n1 [exicorilant+enzalutamide],"PSA reductions at any time during treatment, % of patients",[2]; Segment 2,56%
same,"PSA reductions at any time during treatment, number of patients",[2]; Segment 2,14
same,patients with greater than 25% increase in PSADT,[2]; Segment 2,Two
same,"PSA response (≥50% PSA reduction from baseline), number of patients",[2]; Segment 2 (n = 25),1
same,"reductions in PSA as compared to baseline, % of patients",[2]; Segment 2 (n = 25),15% and 16%
same,"reductions in PSA as compared to baseline, number of patients",[2]; Segment 2 (n = 25),4
same,radiographic / imaging-based tumor responses,"[2]; Segment 2 (n = 25), PCWG3/mRECIST v1.1",no radiographic responses; also recorded: no imaging-based tumor responses
same,"best overall response of stable disease, % of patients",[2]; [8],72%
same,"best overall response of stable disease, number of patients",[2]; [8],18
same,"PSADT increased, % of patients","[2]; Segment 2, After C1D1 (n = 25)",52%
same,"PSADT increased, number of patients","[2]; Segment 2, After C1D1 (n = 25)",13
same,"PSADT increased, % of patients","[2]; Segment 2, After C2D1 (n = 23)",69.6%
same,"PSADT increased, number of patients","[2]; Segment 2, After C2D1 (n = 23)",16
same,"PSADT increased, % of patients","[2]; Segment 2, After C3D1 (n = 13)",61.4%
same,"PSADT increased, number of patients","[2]; Segment 2, After C3D1 (n = 13)",8
same,"PSADT increase, % of patients",[2]; Segment 2 patients who received more than two cycles of the combined treatment,61.5%
same,"PSA declines by the second on-treatment PSA assessment, number of patients",[2]; of 14 patients with PSA reductions,11
same,PSA reduction from baseline in one patient,[2]; patient who received 320 mg exicorilant with 160 mg enzalutamide,71.1%
same,PSA reduction from baseline in one patient,[2]; patient with 240 mg exicorilant + 160 mg enzalutamide,36.7%
same,"increases in PSA doubling time, % of patients",[2]; patients dosed daily under fed conditions,more than 50%
same,tumor growth,"[3]; exicorilant with enzalutamide vs enzalutamide alone, castrated mice, N=10/group",significantly reduced tumor growth
same,serum cortisol and ACTH levels,"cortisol, ACTH",neither ACTH nor cortisol levels are significantly elevated
same,SAEs with a fatal outcome,[4]; Segment 2,No SAEs with a fatal outcome
same,grade 5 TEAEs,[4]; all patients,no grade 5 adverse events; also recorded: no grade 5 TEAEs
same,"grade 4 TEAEs, number","[4]; human, in vivo",one
same,"tolerated phase 2 regimen, exicorilant dose","[4]; once-daily, combined with 160 mg enzalutamide once daily, based on DLTs",240 mg
same,dose-limiting events,"[4]; segment 1, exicorilant BID fasted","Dose-limiting fatigue, musculoskeletal pain, and pancreatitis"
"Cn1ncc(S(=O)(=O)N2CC[C@H]3Cc4c(cnn4-c4ccc(F)cc4)C[C@]3(C(=O)c3cc(C(F)(F)F)ccn3)C2)n1 [exicorilant, ((4aR,8aS)-1-(4-fluorophenyl)-6-((2-methyl-2H-1,2,3-triazol-4-yl)sulfonyl)-4,4a,5,6,7,8,8a,9-octahydro-1H-pyrazolo[3,4-g]isoquinolin-4a-yl)(4-(trifluoromethyl)pyridin-2-yl)methanone]","pharmacodynamic effects (gene expression), with food vs fasting",GR target genes (CDKN1C); 240-320 mg QD with food vs BID fasting (Segment 1),larger when exicorilant was administered with food; also recorded: greater than those observed in fasted patients
same,modulation of GR target genes,GR target genes (CDKN1C); patients receiving exicorilant,confirmed modulation of GR target genes; also recorded: Modulation of GR target genes was observed
same,Ki,human GR [5],< 15 nM
same,mode of action at GR,human GR [5],"competitive, reversible, full antagonist of GR"
same,tumor growth,"[3]; exicorilant with castration vs castration alone, N=10 mice/group",significantly reduced tumor growth
same,24-h urinary free cortisol (UFC) levels,"cortisol, ACTH; Segment 2 subjects with escalated exicorilant doses",did not increase UFC levels
same,serum cortisol and ACTH levels,"cortisol, ACTH",did not affect cortisol or ACTH levels; also recorded: not significantly altered; also recorded: no significant alterations
same,most frequently reported TEAE assessed as related to exicorilant,"[4]; human, in vivo",fatigue
same,"Exicorilant-related TEAE ALP increased, % of patients","[4]; male, human, in vivo",(12.0%)
same,"Exicorilant-related TEAE ALP increased, number of patients","[4]; male, human, in vivo",3
same,"Exicorilant-related TEAE Anemia, % of patients","[4]; male, human, in vivo",(16.0%)
same,"Exicorilant-related TEAE Anemia, number of patients","[4]; male, human, in vivo",4
same,"Exicorilant-related TEAE Constipation, % of patients","[4]; male, human, in vivo",(28.0%)
same,"Exicorilant-related TEAE Constipation, number of patients","[4]; male, human, in vivo",7
same,"Exicorilant-related TEAE Decreased appetite, % of patients","[4]; male, human, in vivo",(24.0%)
same,"Exicorilant-related TEAE Decreased appetite, number of patients","[4]; male, human, in vivo",6
same,"Exicorilant-related TEAE Lymphocyte count decreased, % of patients","[4]; male, human, in vivo",(12.0%)
same,"Exicorilant-related TEAE Lymphocyte count decreased, number of patients","[4]; male, human, in vivo",3
same,"Exicorilant-related TEAE Nausea, % of patients","[4]; male, human, in vivo",(20.0%)
same,"Exicorilant-related TEAE Nausea, number of patients","[4]; male, human, in vivo",5
same,"Exicorilant-related TEAE Pain in extremity, % of patients","[4]; male, human, in vivo",(20.0%)
same,"Exicorilant-related TEAE Pain in extremity, number of patients","[4]; male, human, in vivo",5
same,"Patients with any TEAE related to exicorilant, %","[4]; male, human, in vivo",(92.0%)
same,"Patients with any TEAE related to exicorilant, number","[4]; male, human, in vivo",23
same,"SAEs assessed as being related to exicorilant, number","[4]; male, human, in vivo",1
same,"exicorilant-related AE back pain, % of patients","[4]; male, human, in vivo",35%
same,"exicorilant-related AE decreased appetite, % of patients","[4]; male, human, in vivo",27%
same,"exicorilant-related AE fatigue, % of patients","[4]; male, human, in vivo",57%
same,"exicorilant-related AE pain in extremity, % of patients","[4]; male, human, in vivo",22%
same,exicorilant exposures across arms and dose levels,"[6]; Segment 2, 240-320 mg",largely overlapping across arms and dose levels
same,AUC(0-t),[6]; [9],366 µg·h/mL
same,Cmax,[6]; [9],17700 ng/mL
same,AUC(0-t),[6]; [10],401 µg·h/mL
same,Cmax,[6]; [10],19600 ng/mL
same,AUC(0-t),[6]; [11],428 µg·h/mL
same,Cmax,[6]; [11],19600 ng/mL
same,AUC(0-t),[6]; [12],375 µg·h/mL
same,Cmax,[6]; [12],17200 ng/mL
same,selectivity for GR,ER and AR,selectivity for GR relative to ER and AR
same,Ki,human GR [7],< 1 nM
